Test systems include IGROV1 ovarian; SF-295 CNS; TK-10 renal; SNB-75 CNS; NCI-H460 lung; HCT-15 colon; OVCAR-3 ovarian; DU-145 prostate; MDA-N; T-47D breast; M14 melanoma.
Common to all, as to test: NCI anticancer screen, dose series, 48 h

Each structure is given as a SMILES string.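 Exposure lasted 48 hours, with cells grown in 96-well plates and compounds tested at five concentrations. GI50 marks 50% less growth. TGI: total growth inhibition.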

With `O=c1n(C2CCCCC2)c(=C(Cl)Cl)c(=C(Cl)Cl)n1C1CCCCC1`, the TGI in the assay with IGROV1 ovarian, in the assay on SF-295 CNS, with TK-10 renal, in the assay on SNB-75 CNS, with NCI-H460 lung and in the assay on HCT-15 colon was over 100 µM throughout. Moreover, in the assay with OVCAR-3 ovarian, the TGI is over 100 µM.

On to `COc1ccc(C[C@H]2COC(=O)[C@@H]2Cc2ccccc2)cc1OC`, for which the TGI in the assay with IGROV1 ovarian, with DU-145 prostate, with SF-295 CNS, with TK-10 renal, with NCI-H460 lung and with OVCAR-3 ovarian was over 100 µM each time. Also, the TGI in the assay with MDA-N and in the assay on T-47D breast was over 100 µM throughout.

In the case of `Cc1ccc(S(=O)(=O)CC2CCCn3c2c(C#N)c2ccccc23)cc1` (stereo not drawn), the TGI in the assay with IGROV1 ovarian, with DU-145 prostate, in the assay with SF-295 CNS, in the assay with M14 melanoma, with TK-10 renal and with SNB-75 CNS was over 100 µM throughout. Further, the TGI in the assay with HCT-15 colon, in the assay on OVCAR-3 ovarian and with T-47D breast was over 100 µM in each case.

As to `NC(=O)CC[C@H]1C(=O)N=C(N)N1C(=O)OCc1ccccc1`, the TGI in the assay on IGROV1 ovarian, in the assay with DU-145 prostate, in the assay with SF-295 CNS, with TK-10 renal, with SNB-75 CNS and in the assay on NCI-H460 lung was over 100 µM throughout. Further, the TGI in the assay on HCT-15 colon, in the assay with OVCAR-3 ovarian and with MDA-N was over 100 µM in each case.

Regarding `O=c1[nH]nc(N/N=C\c2ccc(Cl)cc2)c2ccccc12`, the TGI in the assay on IGROV1 ovarian was 37.2 µM; in the assay on DU-145 prostate, 72 µM; in the assay with SF-295 CNS it was 34 µM; with M14 melanoma, 35.4 µM; in the assay with TK-10 renal it was 54.4 µM; in the assay on SNB-75 CNS, 47.6 µM. The TGI in the assay on NCI-H460 lung turned out to be 47.9 µM; in the assay with HCT-15 colon it was 34.9 µM; in the assay with OVCAR-3 ovarian, 30.2 µM; with T-47D breast, 69.2 µM.

In the case of `C/C(=C\COP(=O)(O)OP(=O)(O)O)CC/C=C(\C)CNc1ccccc1`, the TGI in the assay with IGROV1 ovarian, in the assay on DU-145 prostate, with SF-295 CNS, with M14 melanoma, with TK-10 renal and in the assay on SNB-75 CNS was over 50 µM in each case. For the same compound, the TGI in the assay with NCI-H460 lung, in the assay with HCT-15 colon and in the assay on T-47D breast was over 50 µM in each case.

As for `CC(C)NCCNC(=O)c1ccccc1Nc1c(Cl)cccc1Cl`, the TGI in the assay on IGROV1 ovarian was found to be 30.7 µM; in the assay with SF-295 CNS, 28.5 µM; in the assay with M14 melanoma, 25.1 µM; in the assay on TK-10 renal, 24 µM; with SNB-75 CNS, 16.3 µM; in the assay on NCI-H460 lung, 11 µM. The TGI in the assay on HCT-15 colon worked out at 26.5 µM; in the assay with OVCAR-3 ovarian it was 26.6 µM.

As to `COc1ccc(C2C3=CONC3CC3CCCCC32)cc1` (stereo not drawn), the TGI in the assay on IGROV1 ovarian, in the assay on M14 melanoma, with TK-10 renal, in the assay with SNB-75 CNS, with NCI-H460 lung and in the assay with OVCAR-3 ovarian was over 100 µM in each case. Further, the TGI with T-47D breast is over 100 µM.

On to `COc1ccc2c3c([nH]c2c1)-c1nc2ccccc2c(=O)n1CC3`, for which the TGI in the assay with IGROV1 ovarian, in the assay on SF-295 CNS, in the assay with M14 melanoma, in the assay on TK-10 renal, with SNB-75 CNS and in the assay on NCI-H460 lung was over 25 µM each time. For the same compound, the TGI in the assay with HCT-15 colon, with MDA-N and with T-47D breast was over 25 µM in each case. Moreover, the GI50 in the assay with NCI-H460 lung is 1380 nM.

For the compound `N#C[C@H]1C(=O)C(c2nc3ccccc3[nH]2)S[C@H]1c1ccccc1` (stereo partly drawn), the TGI in the assay on IGROV1 ovarian is over 100 µM; in the assay with DU-145 prostate, over 100 µM; in the assay with SF-295 CNS, 86.2 µM; with M14 melanoma it was over 100 µM; in the assay on TK-10 renal it was over 100 µM; in the assay on NCI-H460 lung it was over 100 µM. Besides, the TGI in the assay with HCT-15 colon and with OVCAR-3 ovarian was over 100 µM in each case.

In the case of `CC(=O)CCCCCCCCCCCC[C@@H]1CC[C@H](C)[C@H](O)N1`, the TGI in the assay with IGROV1 ovarian, in the assay with SF-295 CNS, with M14 melanoma, with TK-10 renal, with SNB-75 CNS and with NCI-H460 lung was over 100 µM in each case. Moreover, the TGI in the assay with HCT-15 colon and in the assay on OVCAR-3 ovarian was over 100 µM in each case.

For `O=[N+]([O-])c1cccc([N+](=O)[O-])c1Cl`, the TGI was 30.6 µM in the assay on IGROV1 ovarian; 11.4 µM in the assay on DU-145 prostate; 34.8 µM in the assay on SF-295 CNS; over 100 µM with M14 melanoma; 41.3 µM in the assay with TK-10 renal; 67.5 µM in the assay on SNB-75 CNS. Besides, the TGI in the assay on NCI-H460 lung is over 100 µM; with HCT-15 colon, 31.6 µM; with OVCAR-3 ovarian it was 4.84 µM; in the assay with T-47D breast, 14.7 µM.

On to `O=c1cnc2cc3ccccc3cc2[nH]1`, for which the TGI in the assay with IGROV1 ovarian, with SF-295 CNS, with M14 melanoma, in the assay with TK-10 renal, with SNB-75 CNS and in the assay with NCI-H460 lung was over 100 µM in each case. The TGI with HCT-15 colon, in the assay with OVCAR-3 ovarian and in the assay with MDA-N was over 100 µM throughout.

With `O=C1/C(=C/C=C/c2ccccc2)CCC1CNc1ccc(Br)cc1` (stereo not drawn), the TGI in the assay on IGROV1 ovarian, with DU-145 prostate, in the assay on SF-295 CNS, in the assay on M14 melanoma, in the assay on TK-10 renal and in the assay with NCI-H460 lung was over 100 µM throughout. Further, the TGI with HCT-15 colon, with OVCAR-3 ovarian and in the assay with T-47D breast was over 100 µM throughout.

For the compound `N#CC(NNC(=O)c1ccccc1O)c1ccc(O)cc1` (stereo not drawn), the TGI in the assay with IGROV1 ovarian, in the assay with SF-295 CNS, with M14 melanoma, in the assay with TK-10 renal, in the assay with NCI-H460 lung and in the assay with HCT-15 colon was over 100 µM each time. Also, in the assay with OVCAR-3 ovarian, the TGI was 74 µM.

The values are drawn from PubChem BioAssay (NCI).
